Relative viability data for six cell lines are collected here from the supplement of paper PMC10307832.

Holding throughout (test): relative viability (nuclei count vs DMSO), 5 days (fraction); higher = more cells survive
Compound in the test “Crizotinib + Phenformin”: C[C@@H](Oc1cc(-c2cnn(C3CCNCC3)c2)cnc1N)c1c(Cl)ccc(F)c1Cl [Crizotinib] + N=C(N)NC(=N)NCCc1ccccc1 [Phenformin] (partner 250 µM)
The method in brief:
(§1)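 Lung cancer cell lines were pin-tool dosed in 1536-well plates on the day after seeding, with either a lone drug or a fixed anchor-drug dose plus five library-drug doses (not always all listed) in √10 steps. Nuclei were counted on 4× images after 5 days. Relative viability is the ratio of treated-well to vehicle-well nuclei counts, with each value a median of duplicate plates.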

Compound in the test “Crizotinib + Decitabine”: C[C@@H](Oc1cc(-c2cnn(C3CCNCC3)c2)cnc1N)c1c(Cl)ccc(F)c1Cl [Crizotinib] + Nc1ncn([C@H]2C[C@H](O)[C@@H](CO)O2)c(=O)n1 [Decitabine] (partner 2 µM)
Put shortly:
as §1

Compound in the test “Crizotinib + Olaparib”: C[C@@H](Oc1cc(-c2cnn(C3CCNCC3)c2)cnc1N)c1c(Cl)ccc(F)c1Cl [Crizotinib] + O=C(c1cc(Cc2n[nH]c(=O)c3ccccc23)ccc1F)N1CCN(C(=O)C2CC2)CC1 [Olaparib] (partner 8 µM)
The method in brief: as §1

Compound in the test “Crizotinib + Foretinib”: C[C@@H](Oc1cc(-c2cnn(C3CCNCC3)c2)cnc1N)c1c(Cl)ccc(F)c1Cl [Crizotinib] + COc1cc2c(Oc3ccc(NC(=O)C4(C(=O)Nc5ccc(F)cc5)CC4)cc3F)ccnc2cc1OCCCN1CCOCC1 [Foretinib] (partner 0.25 µM)
Put shortly:
as §1

For the cell line RERF-LC-KJ, the relative viability with Crizotinib + Phenformin (first compound 0.03162 µM) amounted to 0.421; with Crizotinib + Phenformin (first compound 0.1 µM) it was 0.409; with Crizotinib + Phenformin (first compound 0.3162 µM), 0.435; with Crizotinib + Phenformin (first compound 1 µM) it was 0.409; with Crizotinib + Decitabine (first compound 0.01 µM), 0.737; in the test with Crizotinib + Decitabine (first compound 0.03162 µM), 0.635. Besides, the relative viability is 0.569 with Crizotinib + Decitabine (first compound 0.1 µM); 0.585 with Crizotinib + Decitabine (first compound 0.3162 µM); 0.7 in the test with Crizotinib + Decitabine (first compound 1 µM); 0.843 in the test with Crizotinib + Olaparib (first compound 0.01 µM); 0.887 with Crizotinib + Olaparib (first compound 0.03162 µM); 0.928 in the test with Crizotinib + Olaparib (first compound 0.1 µM). The relative viability turned out to be 0.919 with Crizotinib + Olaparib (first compound 0.3162 µM); 0.802 with Crizotinib + Olaparib (first compound 1 µM); 0.824 with Crizotinib + Foretinib (first compound 0.01 µM); 0.896 with Crizotinib + Foretinib (first compound 0.03162 µM); 1.33 with Crizotinib + Foretinib (first compound 0.1 µM); 0.817 in the test with Crizotinib + Foretinib (first compound 0.3162 µM). Besides, in the test with Crizotinib + Foretinib (first compound 1 µM), the relative viability was found to be 0.887.

In the case of SK-LU-1, the relative viability in the test with Crizotinib + Phenformin (first compound 0.01 µM) stood at 0.544; in the test with Crizotinib + Phenformin (first compound 0.03162 µM), 0.535; with Crizotinib + Phenformin (first compound 0.1 µM), 0.506; with Crizotinib + Phenformin (first compound 0.3162 µM), 0.499; with Crizotinib + Phenformin (first compound 1 µM), 0.547; with Crizotinib + Decitabine (first compound 0.01 µM), 0.648. Moreover, the relative viability with Crizotinib + Decitabine (first compound 0.03162 µM) stood at 0.715; with Crizotinib + Decitabine (first compound 0.1 µM), 0.634; with Crizotinib + Decitabine (first compound 0.3162 µM), 0.599; in the test with Crizotinib + Decitabine (first compound 1 µM), 0.63; with Crizotinib + Olaparib (first compound 0.01 µM) it was 0.504; with Crizotinib + Olaparib (first compound 0.03162 µM), 0.438. Further, the relative viability was found to be 0.451 in the test with Crizotinib + Olaparib (first compound 0.1 µM); 0.477 in the test with Crizotinib + Olaparib (first compound 0.3162 µM); 0.405 with Crizotinib + Olaparib (first compound 1 µM); 0.822 with Crizotinib + Foretinib (first compound 0.01 µM); 0.778 in the test with Crizotinib + Foretinib (first compound 0.03162 µM); 0.787 with Crizotinib + Foretinib (first compound 0.1 µM). Also, the relative viability with Crizotinib + Foretinib (first compound 0.3162 µM) is 0.902; with Crizotinib + Foretinib (first compound 1 µM), 0.848.

Consider SK-MES-1, for which the relative viability turned out to be 0.617 in the test with Crizotinib + Phenformin (first compound 0.01 µM); 0.676 with Crizotinib + Phenformin (first compound 0.03162 µM); 0.638 in the test with Crizotinib + Phenformin (first compound 0.1 µM); 0.645 in the test with Crizotinib + Phenformin (first compound 0.3162 µM); 0.593 with Crizotinib + Phenformin (first compound 1 µM); 0.318 in the test with Crizotinib + Decitabine (first compound 0.01 µM). Also, the relative viability came out at 0.378 with Crizotinib + Decitabine (first compound 0.03162 µM); 0.367 in the test with Crizotinib + Decitabine (first compound 0.1 µM); 0.388 in the test with Crizotinib + Decitabine (first compound 0.3162 µM); 0.335 with Crizotinib + Decitabine (first compound 1 µM); 0.683 with Crizotinib + Olaparib (first compound 0.01 µM); 0.733 with Crizotinib + Olaparib (first compound 0.03162 µM). Further, the relative viability in the test with Crizotinib + Olaparib (first compound 0.1 µM) was 0.761; with Crizotinib + Olaparib (first compound 0.3162 µM), 0.762; in the test with Crizotinib + Olaparib (first compound 1 µM) it was 0.637; in the test with Crizotinib + Foretinib (first compound 0.01 µM), 0.875; in the test with Crizotinib + Foretinib (first compound 0.03162 µM) it was 0.919; with Crizotinib + Foretinib (first compound 0.1 µM), 0.941. The relative viability with Crizotinib + Foretinib (first compound 0.3162 µM) is 0.798; with Crizotinib + Foretinib (first compound 1 µM), 0.843.

SW 900: the relative viability with Crizotinib + Phenformin (first compound 0.01 µM) stood at 0.556; with Crizotinib + Phenformin (first compound 0.03162 µM), 0.651; with Crizotinib + Phenformin (first compound 0.1 µM), 0.652; with Crizotinib + Phenformin (first compound 0.3162 µM) it was 0.586; with Crizotinib + Phenformin (first compound 1 µM), 0.723; in the test with Crizotinib + Decitabine (first compound 0.01 µM) it was 0.418. Besides, the relative viability with Crizotinib + Decitabine (first compound 0.03162 µM) is 0.436; with Crizotinib + Decitabine (first compound 0.1 µM), 0.403; with Crizotinib + Decitabine (first compound 0.3162 µM), 0.449; in the test with Crizotinib + Decitabine (first compound 1 µM), 0.459; with Crizotinib + Olaparib (first compound 0.01 µM), 0.792; with Crizotinib + Olaparib (first compound 0.03162 µM) it was 0.814. The relative viability with Crizotinib + Olaparib (first compound 0.1 µM) was 0.831; with Crizotinib + Olaparib (first compound 0.3162 µM), 1.06; with Crizotinib + Olaparib (first compound 1 µM), 0.863; with Crizotinib + Foretinib (first compound 0.01 µM) it was 0.935; with Crizotinib + Foretinib (first compound 0.03162 µM), 0.877; with Crizotinib + Foretinib (first compound 0.1 µM), 0.823. The relative viability with Crizotinib + Foretinib (first compound 0.3162 µM) is 1.01; with Crizotinib + Foretinib (first compound 1 µM) it was 0.742.

SW 1573: the relative viability came to 0.418 with Crizotinib + Phenformin (first compound 0.01 µM); 0.376 with Crizotinib + Phenformin (first compound 0.03162 µM); 0.39 in the test with Crizotinib + Phenformin (first compound 0.1 µM); 0.302 in the test with Crizotinib + Phenformin (first compound 0.3162 µM); 0.391 with Crizotinib + Phenformin (first compound 1 µM); 0.431 with Crizotinib + Decitabine (first compound 0.01 µM). Also, the relative viability worked out at 0.529 with Crizotinib + Decitabine (first compound 0.03162 µM); 0.483 with Crizotinib + Decitabine (first compound 0.1 µM); 0.404 with Crizotinib + Decitabine (first compound 0.3162 µM); 0.456 with Crizotinib + Decitabine (first compound 1 µM); 0.44 with Crizotinib + Olaparib (first compound 0.01 µM); 0.459 with Crizotinib + Olaparib (first compound 0.03162 µM). For the same cell line, the relative viability with Crizotinib + Olaparib (first compound 0.1 µM) turned out to be 0.542; in the test with Crizotinib + Olaparib (first compound 0.3162 µM) it was 0.483; with Crizotinib + Olaparib (first compound 1 µM) it was 0.383; with Crizotinib + Foretinib (first compound 0.01 µM), 0.85; with Crizotinib + Foretinib (first compound 0.03162 µM), 0.762; in the test with Crizotinib + Foretinib (first compound 0.1 µM), 0.905. Besides, the relative viability is 0.77 with Crizotinib + Foretinib (first compound 0.3162 µM) and 0.98 with Crizotinib + Foretinib (first compound 1 µM).

Take UMC-11: the relative viability in the test with Crizotinib + Phenformin (first compound 0.01 µM) was determined as 0.259; with Crizotinib + Phenformin (first compound 0.03162 µM), 0.339; in the test with Crizotinib + Phenformin (first compound 0.1 µM), 0.321; in the test with Crizotinib + Phenformin (first compound 0.3162 µM), 0.27; with Crizotinib + Phenformin (first compound 1 µM), 0.306; with Crizotinib + Decitabine (first compound 0.01 µM), 0.694. Also, the relative viability in the test with Crizotinib + Decitabine (first compound 0.03162 µM) was 0.593; with Crizotinib + Decitabine (first compound 0.1 µM), 0.521; with Crizotinib + Decitabine (first compound 1 µM), 0.643; with Crizotinib + Olaparib (first compound 0.01 µM), 0.35; with Crizotinib + Olaparib (first compound 0.03162 µM), 0.306; with Crizotinib + Olaparib (first compound 0.1 µM), 0.375. Moreover, the relative viability amounted to 0.494 with Crizotinib + Olaparib (first compound 0.3162 µM); 0.317 with Crizotinib + Olaparib (first compound 1 µM); 1.01 with Crizotinib + Foretinib (first compound 0.01 µM); 1.04 with Crizotinib + Foretinib (first compound 0.03162 µM); 1.07 in the test with Crizotinib + Foretinib (first compound 0.1 µM); 1.04 in the test with Crizotinib + Foretinib (first compound 0.3162 µM). Moreover, the relative viability in the test with Crizotinib + Foretinib (first compound 1 µM) came out at 1.02.
